Source: US20210227854A1, “USE OF D-RIBOSE TO ENHANCE ADAPTATION TO PHYSICAL STRESS” (Bioenergy Life Science, Inc., priority 2014, published 2021)

Legend:
Format in all cases: in vivo, human
[1] = Rating of perceived exertion (RPE) during exercise; details: for RPE (Borg 6-20 scale): 10 g/day, mean ± SD
Procedure: A high-intensity exercise protocol was designed as a double-blind, crossover study to assess the influence of D-Ribose adaptation to physical stress. Specifically, D-Ribose and a control (Dextrose) were administered on separate subjects at a dosage of ten grams per day (10 g/day). A variety of physiological parameters were measured in the subjects administered D-Ribose (DR) supplementation (i.e., the DR subjects) versus the subjects administered Dextrose (DEX) supplementation (i.e., the DEX subjects). To test D-ribose for adaptation, the twenty-six (26) adult subjects were further divided into two subgroups based on their fitness level (i.e., peak oxygen uptake (VO2 max) results. The first subgroup comprised subjects with higher VO2 max results (i.e., the “Fit Subgroup”) and the second subgroup comprised subjects with lower VO2 max results (i.e., the “Unfit Subgroup”). The Unfit Subgroup consisted of six (6) females and seven (7) males. The average age of the Unfit Subgroup was 27.7±3.4 years and the average peak VO2 of the Unfit Subgroup was 39.9±4.1 mL/kg/min. The Fit Subgroup consisted of four (4) females and nine (9) males. The average age of the Fit Subgroup was 27.6±3.5 year and the average peak VO2 of the Fit Subgroup was 52.2±4.3 mL/kg/min. The protocol of the double-blind crossover study involved an initial baseline assessment, followed by two separate day assessments after consuming either a DR or DEX supplement. Each exercise session entailed measurements of creatine kinase (CK), blood urea nitrogen (BUN), glucose, heart rate (HR), rate of perceived exertion (RPE), and power output (PO) measurements. […] The Likert scale (0-10 points) was used to subjectively assess quadriceps muscle soreness, overall fatigue, appetite, perceived performance, and sleep quality. These scales were completed prior to and following each exercise session.

[2] = Heart rate (HR) during exercise sessions; details: for HR (bpm): 10 g/day, mean ± SD
Procedure: A high-intensity exercise protocol was designed as a double-blind, crossover study to assess the influence of D-Ribose adaptation to physical stress. Specifically, D-Ribose and a control (Dextrose) were administered on separate subjects at a dosage of ten grams per day (10 g/day). A variety of physiological parameters were measured in the subjects administered D-Ribose (DR) supplementation (i.e., the DR subjects) versus the subjects administered Dextrose (DEX) supplementation (i.e., the DEX subjects). To test D-ribose for adaptation, the twenty-six (26) adult subjects were further divided into two subgroups based on their fitness level (i.e., peak oxygen uptake (VO2 max) results. The first subgroup comprised subjects with higher VO2 max results (i.e., the “Fit Subgroup”) and the second subgroup comprised subjects with lower VO2 max results (i.e., the “Unfit Subgroup”). The Unfit Subgroup consisted of six (6) females and seven (7) males. The average age of the Unfit Subgroup was 27.7±3.4 years and the average peak VO2 of the Unfit Subgroup was 39.9±4.1 mL/kg/min. The Fit Subgroup consisted of four (4) females and nine (9) males. The average age of the Fit Subgroup was 27.6±3.5 year and the average peak VO2 of the Fit Subgroup was 52.2±4.3 mL/kg/min. The protocol of the double-blind crossover study involved an initial baseline assessment, followed by two separate day assessments after consuming either a DR or DEX supplement. Each exercise session entailed measurements of creatine kinase (CK), blood urea nitrogen (BUN), glucose, heart rate (HR), rate of perceived exertion (RPE), and power output (PO) measurements. Each exercise session consisted of six (6) ten-minute intervals of exercise on a cycle ergometer. During each ten-minute interval, the subject cycled for eight (8) minutes at a workload of approximately 60% of the subject's VO2 max, then immediately cycled for an additional two (2) minutes at a workload of approximately 80% VO2 max (approximately one workload above the subject's calculated lactate threshold). Cadence and power output were monitored at ten-minute intervals during each exercise session. At the end of the sixty-minute exercise session, each subject completed a two-minute performance task (time trial). This performance task required the subject to produce as much power as possible during the two-minute interval. Peak power, average power, and percent decline were assessed during this two-minute task trial. Workload for performance task was set at five percent (5%) of the subject's body weight. Heart rate was recorded using a Polar HR monitor. Blood glucose levels were measured using a Bayer glucose monitor. Blood lactate levels were measured by an AccuSport Lactate Analyzer. Creatine kinase and BUN were measured utilizing an Abaxis Piccolo analyzer. Power data from the time trial performance test was assessed with the Sports Medicine Industries (SMI) software package.

[3] = Tolerability of supplementation in the exercise study; details: 10 g/day; 26 subjects
Procedure: A high-intensity exercise protocol was designed as a double-blind, crossover study to assess the influence of D-Ribose adaptation to physical stress. Specifically, D-Ribose and a control (Dextrose) were administered on separate subjects at a dosage of ten grams per day (10 g/day). A variety of physiological parameters were measured in the subjects administered D-Ribose (DR) supplementation (i.e., the DR subjects) versus the subjects administered Dextrose (DEX) supplementation (i.e., the DEX subjects).
The subjects consisted of twenty-six (26) healthy individual (10 females, 16 males). Each subject was randomly categorized as a DR subject or a DEX subject for the administration of supplementation. Furthermore, each subject was required to maintain his or her normal diet during the study, as well as performing his or her normal daily activities without performing any additional separate exercise sessions not part of the study protocol. […]

Row | SMILES | RPE ([1]; Fit Subgroup) | RPE (Borg 6-20 scale) ([1]; Fit Subgroup) | RPE (Borg 6-20 scale) ([1]; Unfit Subgroup) | RPE ([1]; Unfit Subgroup, p=0.003) | Average rate of perceived exertion, DEX subjects versus DR subjects (FIG. 1) ([1]; all measured points of the exercise sessions) | Average HR ([2]; Fit Subgroup) [bpm] | HR (bpm) ([2]; Fit Subgroup) | Average HR ([2]; Unfit Subgroup) [bpm] | HR (bpm) ([2]; Unfit Subgroup) | Tolerability of supplement [3]
1 | O=C[C@H](O)[C@@H](O)[C@H](O)[C@H](O)CO [DEX, Dextrose, reference compound] | 14±2 | 13.9 ± 1.6 | 13.5 ± 1.5 | 14±2 | greater | 153±12 | 152.4 ± 11.7 | 153±17 | 152.0 ± 19.5 | without any subjective complaints or issues
2 | O=C[C@H](O)[C@H](O)[C@H](O)CO [DR, D-Ribose] | 14±2 | 13.6 ± 1.8 | 13.1 ± 1.6 | 13±2 |  | 153±12 | 152.6 ± 11.9 | 152±20 | 151.5 ± 19.4 | without any subjective complaints or issues
